Test [1] deals with PD-L1 His protein / PD-1 Fc protein (Homo sapiens (Human), UniProt Q9NZQ7). Briefly: HTRF Assay (PD-1/PD-L1 interaction). Format: binding. Particulars: PD-L1 His 6 nM, PD-1 Fc 6 nM.
In another test the target is human PD-L1 (Homo sapiens (Human), UniProt Q9NZQ7). Briefly: T cell activation luciferase reporter cell culture system (T Cell Activation Assay). It is filed as cell-based. Particulars: luciferase reporter assay; PD-L1 aAPC/CHO-K1 cells with PD-1 effector Jurkat T cells.
Sequence of human PD-L1 (Q9NZQ7 19-290): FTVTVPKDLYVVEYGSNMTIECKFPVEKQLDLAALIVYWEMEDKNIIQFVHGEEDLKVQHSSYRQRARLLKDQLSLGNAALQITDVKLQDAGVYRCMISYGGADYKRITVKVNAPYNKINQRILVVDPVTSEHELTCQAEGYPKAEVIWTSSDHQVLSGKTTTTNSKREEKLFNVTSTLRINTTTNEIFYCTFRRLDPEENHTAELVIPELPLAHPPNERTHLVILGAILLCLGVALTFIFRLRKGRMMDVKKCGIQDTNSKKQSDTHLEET

Sequence of PD-L1 His protein / PD-1 Fc protein (Q9NZQ7 19-238): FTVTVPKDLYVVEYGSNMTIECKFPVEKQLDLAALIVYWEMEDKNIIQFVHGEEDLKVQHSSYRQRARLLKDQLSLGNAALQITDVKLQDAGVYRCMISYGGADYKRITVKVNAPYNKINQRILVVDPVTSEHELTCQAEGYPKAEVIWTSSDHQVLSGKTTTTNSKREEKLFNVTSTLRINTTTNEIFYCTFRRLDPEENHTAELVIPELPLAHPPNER

In the case of `COc1cc(-c2nccc(-c3cccc(-c4ccc(CNC5CCOCC5)c(OC)n4)c3Cl)c2C)ccc1CNC1CCOCC1` [Example 462, N-((6-(2-chloro-3-(2-(3-methoxy-4-(((tetrahydro-2H-pyran-4-yl)amino)methyl)phenyl)-3-methylpyridin-4-yl)phenyl)-2-methoxypyridin-3-yl)methyl)tetrahydro-2H-pyran-4-amine], the midpoint of inhibition in test [1], the IC50, lay at 6.78 nM. Moreover, the EC50 on human PD-L1 worked out at 178 nM.
For `COc1cc(-c2nccc(-c3cccc(-c4ccc(CN5CC6(CCOCC6)C5)c(OC)n4)c3Cl)c2Cl)ccc1CN1CC2(CCOCC2)C1` [Example 470, 2-((6-(3-(2-(4-((7-Oxa-2-azaspiro[3.5]nonan-2-yl)methyl)-3-methoxyphenyl)-3-chloropyridin-4-yl)-2-chlorophenyl)-2-methoxypyridin-3-yl)methyl)-7-oxa-2-azaspiro[3.5]nonane] the same measures were 19.3 nM and 190 nM.
The matching figures for `COc1cc(-c2nccc(-c3cccc(-c4ccc(CN5CC(C(C)(C)O)C5)c(OC)n4)c3Cl)c2Cl)ccc1CN1CC(C(C)(C)O)C1` [Example 471, 2-(1-((6-(2-Chloro-3-(3-chloro-2-(4-((3-(2-hydroxypropan-2-yl)azetidin-1-yl)methyl)-3-methoxyphenyl)pyridin-4-yl)phenyl)-2-methoxypyridin-3-yl)methyl)azetidin-3-yl)propan-2-ol]: 4.63 nM and 111 nM.
For `COc1cc(-c2nccc(-c3cccc(-c4ccc(CN(C)C[C@H]5CNC(=O)C5)c(OC)n4)c3Cl)c2Cl)ccc1CN(C)C[C@H]1CNC(=O)C1` [Example 473, (R)-4-((((6-(2-Chloro-3-(3-chloro-2-(3-methoxy-4-((methyl(((R)-5-oxopyrrolidin-3-yl)methyl)amino)methyl)phenyl)pyridin-4-yl)phenyl)-2-methoxypyridin-3-yl)methyl)(methyl)amino)methyl)pyrrolidin-2-one] the same measures were 16.9 nM and no less than 10000 nM.
Regarding `COc1nc(-c2cccc(-c3ccnc(-c4cc(OC)c5nc(CN6CC(C)(C#N)C6)cn5c4)c3Cl)c2Cl)ccc1CNC1CCN(C(C)=O)CC1` [Example 477, 1-((6-(4-(3-(5-(((1-Acetylpiperidin-4-yl)amino)methyl)-6-methoxypyridin-2-yl)-2-chlorophenyl)-3-chloropyridin-2-yl)-8-methoxyimidazo[1,2-a]pyridin-2-yl)methyl)-3-methylazetidine-3-carbonitrile], the midpoint of inhibition in test [1], the IC50, lay at 21.4 nM. At human PD-L1, the half-maximal effective concentration (EC50) was 7480 nM.
The matching figures for `COc1nc(-c2cccc(-c3ccnc(-c4cc(OC)c5nc(CNCC(F)F)cn5c4)c3Cl)c2Cl)ccc1CNC1CCN(C(C)=O)CC1` [Example 478, 1-(4-(((6-(2-Chloro-3-(3-chloro-2-(2-(((2,2-difluoroethyl)amino)methyl)-8-methoxyimidazo[1,2-a]pyridin-6-yl)pyridin-4-yl)phenyl)-2-methoxypyridin-3-yl)methyl)amino)piperidin-1-yl)ethan-1-one]: 43.9 nM and no less than 10000 nM.
The matching figures for `COc1cc(-c2nccc(-c3cccc(-c4ccc(CNC5CCN(C(C)=O)CC5)c(OC)n4)c3Cl)c2Cl)cc2c1CN(C1CCN(CC(=O)O)C1=O)CC2` (stereo not shown) [Example 480, 2-(3-(6-(4-(3-(5-(((1-Acetylpiperidin-4-yl)amino)methyl)-6-methoxypyridin-2-yl)-2-chlorophenyl)-3-chloropyridin-2-yl)-8-methoxy-3,4-dihydroisoquinolin-2(1H)-yl)-2-oxopyrrolidin-1-yl)acetic acid]: 3.9 nM and 1490 nM.
For `COc1cc(-c2nccc(-c3cccc(-c4ccc(CN5CC6(C5)CN(C(C)=O)C6)c(OC)n4)c3Cl)c2Cl)ccc1CNC1CCN(C(C)=O)CC1` [Example 483, 1-(4-((4-(4-(3-(5-((6-acetyl-2,6-diazaspiro[3.3]heptan-2-yl)methyl)-6-methoxypyridin-2-yl)-2-chlorophenyl)-3-chloropyridin-2-yl)-2-methoxybenzyl)amino)piperidin-1-yl)ethan-1-one] the same measures were 2.63 nM and 39.7 nM.
The compound `COc1cc(-c2nccc(-c3cccc(-c4ccc(CN5CC6(CNC(=O)C6)C5)c(OC)n4)c3Cl)c2Cl)ccc1CN1CC2(C1)CN(C(C)=O)C2` [Example 493, 2-((6-(3-(2-(4-((6-Acetyl-2,6-diazaspiro[3.3]heptan-2-yl)methyl)-3-methoxyphenyl)-3-chloropyridin-4-yl)-2-chlorophenyl)-2-methoxypyridin-3-yl)methyl)-2,6-diazaspiro[3.4]octan-7-one] returned an IC50 in test [1] of 0.76 nM. On human PD-L1, this compound showed an EC50 of 19.2 nM.
For `COc1cc(-c2nccc(-c3cccc(-c4ccc(CN5CC6(CNC(=O)C6)C5)c(OC)n4)c3Cl)c2Cl)ccc1CN1CC2(CNC2)C1` [Example 494, 2-((6-(3-(2-(4-((2,6-Diazaspiro[3.3]heptan-2-yl)methyl)-3-methoxyphenyl)-3-chloropyridin-4-yl)-2-chlorophenyl)-2-methoxypyridin-3-yl)methyl)-2,6-diazaspiro[3.4]-octan-7-one] the same measures were 5.21 nM and 61.7 nM.
For `COc1cc(-c2nccc(-c3cccc(-c4ccc(CN(C)CC5CN(C(C)=O)C5)c(OC)n4)c3Cl)c2Cl)ccc1CN(C)CC1CN(C(C)=O)C1` [Example 499, 1-(3-((((6-(3-(2-(4-((((1-Acetylazetidin-3-yl)methyl)(methyl)amino)methyl)-3-methoxyphenyl)-3-chloropyridin-4-yl)-2-chlorophenyl)-2-methoxypyridin-3-yl)methyl)(methyl)amino)methyl)azetidin-1-yl)ethan-1-one] the same measures were 2.07 nM and 88.5 nM.
In test [1], `COCC1CCN(Cc2ccc(-c3nccc(-c4cccc(-c5ccc(CNC6CCN(C(C)=O)CC6)c(OC)n5)c4Cl)c3Cl)cc2OC)CC1` [Example 509, 1-(4-(((6-(2-Chloro-3-(3-chloro-2-(3-methoxy-4-((4-(methoxymethyl)piperidin-1-yl)methyl)phenyl)pyridin-4-yl)phenyl)-2-methoxypyridin-3-yl)methyl)amino)piperidin-1-yl)ethan-1-one] returned an IC50 of 9.77 nM. Besides, the EC50 at human PD-L1 was found to be 100 nM.
The matching figures for `COc1cc(-c2nccc(-c3cccc(-c4ccc(CNC5CCN(C(C)=O)CC5)c(OC)n4)c3Cl)c2Cl)ccc1CNCC(F)F` [Example 513, 1-(4-(((6-(2-Chloro-3-(3-chloro-2-(4-(((2,2-difluoroethyl)amino)methyl)-3-methoxyphenyl)pyridin-4-yl)phenyl)-2-methoxypyridin-3-yl)methyl)amino)piperidin-1-yl)ethan-1-one]: 47.1 nM and 685 nM.
For `COc1cc(-c2nccc(-c3cccc(-c4ccc(CN[C@H]5C[C@](C)(O)C5)c(OC)n4)c3Cl)c2Cl)ccc1CN1CC2(CNC(=O)C2)C1` [Example 517, 2-(4-(3-Chloro-4-(2-chloro-3-(5-((((1r,3r)-3-hydroxy-3-methylcyclobutyl)-amino)methyl)-6-methoxypyridin-2-yl)phenyl)pyridin-2-yl)-2-methoxybenzyl)-2,6-diazaspiro[3.4]octan-7-one] the same measures were 1.55 nM and 17 nM.
The matching figures for `COc1cc(-c2nccc(-c3cccc(-c4ccc(CN5CC(C)(O)C5)c(OC)n4)c3Cl)c2Cl)ccc1CN1CC2(CNC(=O)C2)C1` [Example 518, 2-(4-(3-Chloro-4-(2-chloro-3-(5-((3-hydroxy-3-methylazetidin-1-yl)methyl)-6-methoxypyridin-2-yl)phenyl)pyridin-2-yl)-2-methoxybenzyl)-2,6-diazaspiro[3.4]octan-7-one]: 2.42 nM and 9.77 nM.
`COc1cc(-c2nccc(-c3cccc(-c4ccc(CN5CC6(C5)CN(C(C)=O)C6)c(OC)n4)c3Cl)c2Cl)ccc1CN1CC2(CNC(=O)C2)C1` [Example 519, 2-(4-(4-(3-(5-((6-Acetyl-2,6-diazaspiro[3.3]heptan-2-yl)methyl)-6-methoxypyridin-2-yl)-2-chlorophenyl)-3-chloropyridin-2-yl)-2-methoxybenzyl)-2,6-diazaspiro[3.4]octan-7-one] returned an IC50 in test [1] of 1.86 nM. The response on human PD-L1 was half-maximal at 12.8 nM (EC50).
The matching figures for `COc1cc(-c2ncnc(-c3cccc(-c4ccc(CNC5CCN(C(C)=O)CC5)c(OC)n4)c3Cl)c2C)ccc1CNC1CCN(C(C)=O)CC1` [Example 522, 1-(4-(((6-(3-(6-(4-(((1-Acetylpiperidin-4-yl)amino)methyl)-3-methoxyphenyl)-5-methylpyrimidin-4-yl)-2-chlorophenyl)-2-methoxypyridin-3-yl)methyl)amino)piperidin-1-yl)ethan-1-one]: 2.05 nM and no less than 10000 nM.
In test [1], `COc1cc(-c2nccc(-c3cccc(-c4ccc(CNC5CCOCC5)c(OC)n4)c3C(F)(F)F)c2Cl)ccc1CNC1CCOCC1` [Example 529, N-((6-(3-(3-Chloro-2-(3-methoxy-4-(((tetrahydro-2H-pyran-4-yl)amino)methyl)phenyl)pyridin-4-yl)-2-(trifluoromethyl)phenyl)-2-methoxypyridin-3-yl)methyl)tetrahydro-2H-pyran-4-amine] yielded an IC50 of 110 nM. This compound displayed an EC50 on human PD-L1 of no less than 10000 nM.
The matching figures for `COc1cc(-c2nccc(-c3cccc(-c4ccc(CNC5CCOCC5)c(OC)n4)c3Cl)c2Cl)ccc1CN1CC2(CCOCC2)C1` [Example 530, N-((6-(3-(2-(4-((7-Oxa-2-azaspiro[3.5]nonan-2-yl)methyl)-3-methoxyphenyl)-3-chloropyridin-4-yl)-2-chlorophenyl)-2-methoxypyridin-3-yl)methyl)tetrahydro-2H-pyran-4-amine]: 2.51 nM and 39.5 nM.
For `COc1cc(-c2nccc(-c3cccc(-c4ccc(CN5CCC(C(C)=O)CC5)c(OC)n4)c3Cl)c2Cl)ccc1CN1CCC(C(C)=O)CC1` [Example 536, 1-(1-((6-(3-(2-(4-((4-Acetylpiperidin-1-yl)methyl)-3-methoxyphenyl)-3-chloropyridin-4-yl)-2-chlorophenyl)-2-methoxypyridin-3-yl)methyl)piperidin-4-yl)ethan-1-one] the same measures were 6.7 nM and no less than 10000 nM.

These data come from patent US20240246964A1 (Arbutus Biopharma Corporation, priority 2021, published 2024).
